This passage reports IC50, inhibition and Ratio IC50 results from ChEMBL document CHEMBL4433262, “Synthesis and biological evaluation of novel benzo[c][1,2,5]thiadiazol-5-yl and thieno[3,2-c]- pyridin-2-yl imidazole derivatives as ALK5 inhibitors” (Bioorg Med Chem Lett, 2019).

Structures are written as SMILES. The source made the active and inactive calls. No cut-off for these calls is given here.

As usually defined, the IC50 is the concentration at which inhibition is half-maximal.

Test [1] deals with T1, Mitogen-activated protein kinase 14 (Homo sapiens, UniProt Q16539). Kind of test: Inhibition of human recombinant untagged p38alpha expressed in Escherichia coli using ATF2 as substrate incubated for 60 mins in presence of [33P]-ATP by scintillation counting method.
For test [2], the target named is T2, TGF-beta receptor type-1 (Homo sapiens, UniProt P36897).
T2 sequence (P36897 whole entry): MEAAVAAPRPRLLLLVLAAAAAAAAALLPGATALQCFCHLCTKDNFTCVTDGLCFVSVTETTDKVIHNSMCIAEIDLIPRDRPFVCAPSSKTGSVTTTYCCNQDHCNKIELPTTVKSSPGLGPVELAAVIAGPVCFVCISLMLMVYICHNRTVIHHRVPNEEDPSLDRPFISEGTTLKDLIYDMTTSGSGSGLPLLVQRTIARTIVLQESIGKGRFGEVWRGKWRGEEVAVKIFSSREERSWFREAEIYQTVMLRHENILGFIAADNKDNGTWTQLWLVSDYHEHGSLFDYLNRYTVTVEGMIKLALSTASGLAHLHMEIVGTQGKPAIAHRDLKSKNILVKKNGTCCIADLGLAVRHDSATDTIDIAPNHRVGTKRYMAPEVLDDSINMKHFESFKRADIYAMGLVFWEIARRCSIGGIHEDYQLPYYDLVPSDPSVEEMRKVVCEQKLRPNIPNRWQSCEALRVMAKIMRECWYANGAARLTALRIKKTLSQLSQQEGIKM
Kind of test: Inhibition of human recombinant GST-tagged ALK5 expressed in Sf9 insect cells using casein as substrate incubated for 60 mins in presence of [33P]-ATP by scintillation counting method.

The target of test [3] is T3, TGF-beta receptor type-1 (Homo sapiens) (UniProt P36897).
T3 sequence (whole entry): T2 sequence (P36897 whole entry)
Kind of test: Inhibition of ALK5 in human HepG2 cells assessed as reduction in TGFbeta1-induced Smad2 phosphorylation incubated for 36 hrs by Western blot analysis. It is filed as cell-based. In general terms: Immunoblotting shows a protein as a band on a membrane.

The target in test [4] is T1, Mitogen-activated protein kinase 14. Kind of test: Potency index, ratio of IC50 for EW-7197 to IC50 for test compound for inhibition of human recombinant untagged p38alpha expressed in Escherichia coli using ATF2 as substrate incubated for 60 mins in presence of [33P]-ATP by scintillation counting.
Test [5] concerns the target T3, TGF-beta receptor type-1 (Homo sapiens). Kind of test: Potency index, ratio of IC50 for LY-2157299 to IC50 for test compound for inhibition of human recombinant GST-tagged ALK5 expressed in Sf9 insect cells using casein as substrate incubated for 60 mins in presence of [33P]-ATP by scintillation counting method.
Test [6] has the same target. Kind of test: Potency index, ratio of IC50 for EW-7197 to IC50 for test compound for inhibition of human recombinant GST-tagged ALK5 expressed in Sf9 insect cells using casein as substrate incubated for 60 mins in presence of [33P]-ATP by scintillation counting method.
Test [7] addresses T1, Mitogen-activated protein kinase 14. Kind of test: Potency index, ratio of IC50 for LY-2157299 to IC50 for test compound for inhibition of human recombinant untagged p38alpha expressed in Escherichia coli using ATF2 as substrate incubated for 60 mins in presence of [33P]-ATP by scintillation counting method.
The target of test [8] is T3, TGF-beta receptor type-1 (Homo sapiens). Kind of test: Inhibition of ALK5 in human SPC-A1 cells assessed as reduction in TGFbeta1-induced Smad2 phosphorylation at 0.1 to 0.5 uM incubated for 36 hrs by Western blot analysis. It is filed as cell-based.
Test [9] shares this target. Kind of test: Inhibition of ALK5 in human HUVEC cells assessed as reduction in TGFbeta1-induced cell motility at 10 uM incubated for 0 to 48 hrs by wound healing assay. It is filed as cell-based.

T1 sequence (Q16539 whole entry): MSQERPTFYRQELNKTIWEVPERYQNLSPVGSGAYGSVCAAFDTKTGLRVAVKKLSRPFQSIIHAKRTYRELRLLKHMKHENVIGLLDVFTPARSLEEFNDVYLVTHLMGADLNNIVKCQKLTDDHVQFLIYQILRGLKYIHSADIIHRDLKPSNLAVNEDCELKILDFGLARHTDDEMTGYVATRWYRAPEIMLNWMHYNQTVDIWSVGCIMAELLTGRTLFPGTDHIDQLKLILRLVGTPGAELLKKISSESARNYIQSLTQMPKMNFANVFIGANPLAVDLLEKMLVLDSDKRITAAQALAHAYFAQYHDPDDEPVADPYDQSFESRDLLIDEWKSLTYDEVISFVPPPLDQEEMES

For the compound `Cc1ccc(NCc2nc(-c3cc4cnccc4s3)c(-c3cccc(C)n3)[nH]2)cc1`, the results for the IC50 in [1] and in test [2] were more than 10 µM and 0.043 µM, respectively.
On the same counts, the results for `Cc1cccc(-c2[nH]c(CNc3ccccc3)nc2-c2ccc3nsnc3c2)n1` are 0.763 µM and 0.014 µM.
In the same order, the values of `Cc1cccc(-c2[nH]c(CNc3ccc(F)cc3)nc2-c2cc3cnccc3s2)n1` are 4.84 µM and 0.042 µM.
In the same order, the values of `Cc1cccc(-c2[nH]c(CNc3cccc(F)c3)nc2-c2cc3cnccc3s2)n1` are 1.52 µM and 0.017 µM.
Regarding `Cc1cccc(-c2[nH]c(CNc3ccccc3F)nc2-c2ccc3nsnc3c2)n1`, the IC50 in test [1] is 1.17 µM; in test [2] it was 0.011 µM.
As for `Cc1ccc(NCc2nc(-c3ccc4nsnc4c3)c(-c3cccc(C)n3)[nH]2)cc1`, the figures for the IC50 in test [1] and in test [2] were 7.7 µM and 0.022 µM, respectively.
On to `Cc1cccc(-c2[nH]c(CNc3cccc(F)c3)nc2-c2ccc3nsnc3c2)n1`, for which, in test [3], the inhibition result was “Dose-dependent effect”. Besides, the Ratio IC50 in test [4] worked out at 19.9; in [5] it was 16.1; in test [6], 1.8; in test [7], 3.3. Further, the IC50 in test [1] was 0.148 µM; in test [2], 0.008 µM. Also, the inhibition result in test [8] and in [9] was “Active” throughout.
Take `Cc1cccc(-c2[nH]c(CNc3ccccc3)nc2-c2cc3cnccc3s2)n1`: the half-inhibitory concentration (IC50) in [1] worked out at 4.4 µM; in test [2] it was 0.025 µM.
In the same order, the values of `Cc1cccc(-c2[nH]c(CNc3ccc(F)cc3)nc2-c2ccc3nsnc3c2)n1` are 0.831 µM and 0.01 µM.
In the same order, the values of `Cc1cccc(NCc2nc(-c3cc4cnccc4s3)c(-c3cccc(C)n3)[nH]2)c1` are 2.22 µM and 0.019 µM.
Turning to `Cc1cccc(NCc2nc(-c3ccc4nsnc4c3)c(-c3cccc(C)n3)[nH]2)c1`, the IC50 in test [1] was found to be 0.513 µM; in test [2] it was 0.013 µM.
In the same order, the values of `Cc1cccc(-c2[nH]c(CNc3ccccc3F)nc2-c2cc3cnccc3s2)n1` are 6.06 µM and 0.023 µM.
Turning to `Cc1cccc(-c2[nH]c(CNc3ccccc3C)nc2-c2cc3cnccc3s2)n1`, the IC50 in test [1] came to 2.44 µM; in test [2] it was 0.014 µM.
On the same counts, the results for `Cc1cccc(-c2[nH]c(CNc3ccccc3C)nc2-c2ccc3nsnc3c2)n1` are 0.899 µM and 0.021 µM.
